# Assay results published in US4279822A, “N-(1-Substituted-3-pyrrolidinyl)benzamides” (A. H. Robins Company, Inc., priority 1976, dated 1981).
# Tested on: apomorphine-induced emesis in dogs
# Assay: Reduction of apomorphine-induced emesis in dogs (anti-emetic effect)
# Assay type: in vivo
# Settings: Canis lupus familiaris, sc, 40 min, read-out: ED50, Anti-Emetic Effect of Subcutaneous Administration
# Method: The anti-emetic properties of the compounds of Formula I were established using a modification of the methods of Chen and Ensor, J. Pharmac. Exp. Ther. 98: 245-250 (1950) and of Leonard et al., J. Pharmac. Exp. Ther. 154: 339-345 (1966). Drug activity was assessed by its ability to reduce the frequency of apomorphine-induced emesis in dogs. The dogs were prescreened for fairly constant emetic responses to the subcutaneous administration of 0.1 mg/kg. of apomorphine hydrochloride, and those which vomited five or more times in the 40-minute period after apomorphine administration were selected for drug studies.
# Groups of three dogs were used in preliminary tests and for the determinations of time of peak drug effect. Dose response curves were usually obtained using four drug-treated groups; each group contained at least three dogs. The dogs were fed approximately 17 hours prior to a test. Drugs were administered and at suitable intervals the dogs received 0.1 mg/kg of apomorphine hydrochloride subcutaneously. Frequency of emesis was determined during the next 40 minutes and emesis was counted as the actual expulsion of stomach contents.
# In oral studies, drugs were administered in gelatin capsules (controls received an empty capsule). In the subcutaneous studies, drugs were administered in distilled water and/or polyethylene glycol-300.
# Dogs were re-used at intervals of not less than one week. The ED50 is the dose which reduces the frequency of emesis of drug treated dogs to a value 50% below that of controls. Mean frequency of emesis for each drug treated group was compared with a mean control value derived by pooling the prior control emetic frequencies for all dogs used on that test day. The difference is expressed as a percentage decrease relative to controls. The percent decrease in mean frequency of emesis for each drug-treated group (ordinate) was plotted against log dose (abscissa) on semi-log graph sheets. The ED50 was calculated by the method of Goldstein (Biostatistics, An Introductory Test; Pages 156-161; The MacMillan Co., New York, 1964).
row,SMILES,ED50 [mg/kg]
1,"CC(=O)Nc1ccc(C(=O)NC2CCN(C3CCCCC3)C2)cc1 (stereo not drawn) [Example 4, N-(1-Cyclohexyl-3-pyrrolidinyl)-4-acetamidobenzamide]",2.4
2,"O=C(NC1CCN(C2CCCCC2)C1)c1cc([N+](=O)[O-])cc([N+](=O)[O-])c1 (stereo not drawn) [Example 6, N-(1-Cyclohexyl-3-pyrrolidinyl)-3,5-dinitrobenzamide]",0.15
3,O=C(NC1CCN(C2CCCCC2)C1)c1ccc(Cl)cc1Cl (stereo not drawn) [Example 14],2.4

# Same assay, conditions: Canis lupus familiaris, sc, 40 min; dogs, s.c.; doses expressed as free base; apomorphine hydrochloride 0.1 mg/kg s.c.; 50% reduction of emesis frequency vs controls, 40 min; read-out: ED50, Anti-Emetic Effect of Subcutaneous Administration
row,SMILES,ED50 [mg/kg]
1,"CNc1ccc(C(=O)N(C)C2CCN(C3CCCCC3)C2)cc1.Cl.Cl (stereo not drawn) [Example 5, 4-Methylamino-N-(1-cyclohexyl-3-pyrrolidinyl)-N-methylbenzamide Dihydrochloride]",0.05

# Same assay, conditions: dogs, 5 mg/kg s.c.; percent reduction in emesis over that of controls; apomorphine hydrochloride 0.1 mg/kg s.c.
row,SMILES,% Reduction in Emesis [%]
1,"CS(=O)(=O)N(c1ccc(C(=O)NC2CCN(C3CCCCC3)C2)cc1)S(C)(=O)=O (stereo not drawn) [Example 8, N-(1-Cyclohexyl-3-pyrrolidinyl)-4-[bis(methylsulfonyl)amino]benzamide]",-44
2,CC(=O)Nc1cccc(C(=O)NC2CCN(C3CCCCC3)C2)c1 (stereo not drawn) [Example 33],-87
3,CS(=O)(=O)Nc1ccc(C(=O)NC2CCN(C3CCCCC3)C2)cc1 (stereo not drawn) [Example 34],-86
4,CC(=O)Nc1ccccc1C(=O)NC1CCN(C2CCCCC2)C1 (stereo not drawn) [Example 35],-95
5,CC(=O)Nc1ccc(C(=O)NC2CCN(Cc3ccccc3)C2)cc1 (stereo not drawn) [Example 36],-59
